From patent US11672800B2, “Combination therapies with EHMT2 inhibitors” (Epizyme, Inc., priority 2017, dated 2023) come the findings set out here.

Common to all, as to format: cell-based
One test deals with MeWo. Put plainly: In vitro combination study of Compound 205 with a second agent, melanoma cell proliferation (CellTiter Glo, Loewe synergy). Particulars: combination with Compound 205; for Combinatorial effect (Loewe method) of second agent with Compound 205, MeWo: 7 days pre-treatment with Compound 205, then 7 days co-treatment, ATP content, Loewe volume >1 synergy, -1 to 1 additivity. On the procedure: (§1) On day 14 plates were developed for endpoint analysis using CellTiter Glo to measure ATP content, which was used as an indicator of cell viability. DMSO concentration was kept constant throughout the assay at 0.2% v/v.
(§2) All cells were maintained and cultured at 37° C., in a humidified atmosphere and 5% CO2.
(§3) Loewe volumes greater than 1 denoted synergy and volumes below −1 denoted antagonism. A value between −1 and 1 denoted additivity.
Background: Cellular ATP, detected with luciferase, serves as a proxy for viable cell number.

Another test relates to WM-266-4. The test is described as above. Particulars: combination with Compound 205; for Combinatorial effect (Loewe method) of second agent with Compound 205, WM-266-4: 7 days pre-treatment with Compound 205, then 7 days co-treatment, ATP content, Loewe volume >1 synergy, -1 to 1 additivity. How it is done: as §1, §2, §3
Another test concerns CCRF-CEM. Nature of the test: In vitro long term proliferation (LTP), T-ALL cell line. As to conditions: Homo sapiens, 336 h, 14 day LTP, absolute IC50, seeding density 100000, read-out: Compound A75 IC50. On the procedure: (§4) Exponentially growing T-cell lymphocytic leukemia (T-ALL) cells were plated, in triplicate, in 96-well plates at the appropriate cell density in a final volume of 150 μl. Cells were incubated in the presence of increasing concentrations of Compound A75. Viable cell number was determined at day 0, 4, 7, 11 and 14 days using Calcein staining and using an Accumen instrument to enumerate the number of cells. On days of cell counts, growth media and Compound A75 were replaced and cells split back to initial density. Total cell number is expressed as split-adjusted viable cells per well. For each cell line, absolute IC50 values (concentration of compound at which 50% inhibition occurs) were determined from concentration-dependence curves at 14 days using Graphpad Prism software.

The next test concerns Jurkat. Described as above. As to conditions: Homo sapiens, 336 h, 14 day LTP, absolute IC50, seeding density 100000, read-out: Compound A75 IC50. On the procedure: as §4
Another test has as its system MOLT-16. The description is as above. As to conditions: Homo sapiens, 336 h, 14 day LTP, absolute IC50, seeding density 100000, read-out: Compound A75 IC50. How it is done: as §4
For the next test, the system named is MOLT-4. The test is described as above. As to conditions: Homo sapiens, 336 h, 14 day LTP, absolute IC50, seeding density 100000, read-out: Compound A75 IC50. On the procedure: as §4
A further test relates to PEER. The test is described as above. As to conditions: Homo sapiens, 336 h, 14 day LTP, absolute IC50, seeding density 250000, read-out: Compound A75 IC50. How it is done:
as §4

The test system of a further test is SUP-T1. The test is described as above. As to conditions: Homo sapiens, 336 h, 14 day LTP, absolute IC50, seeding density 200000, read-out: Compound A75 IC50. How it is done: as §4
The next test has as its system TALL-1. Described as above. Particulars: Homo sapiens, 336 h, 14 day LTP, absolute IC50, seeding density 150000, read-out: Compound A75 IC50. How it is done:
as §4
For Combinatorial effect (Loewe method) of second agent with Compound 205, MeWo in this document: key: SYN Synergy; ADD Additivity.
For Combinatorial effect (Loewe method) of second agent with Compound 205, WM-266-4 in this document: key: SYN Synergy; ADD Additivity.

Consider `Nc1cc(C(F)(F)F)c(-c2cc(N3CCOCC3)nc(N3CCOCC3)n2)cn1` [BKM120, 5-(2,6-dimorpholin-4-ylpyrimidin-4-yl)-4-(trifluoromethyl)pyridin-2-amine], for which the “Combinatorial effect (Loewe method) of second agent with Compound 205, MeWo” value (from here on “Combinatorial effect (Loewe method) … MeWo”) in the test on MeWo is “SYN”. In addition, in the test with WM-266-4, the “Combinatorial effect (Loewe method) of second agent with Compound 205, WM-266-4” value (shortened to “Combinatorial effect (Loewe method) … WM-266-4”) was “SYN”.

Regarding `CC(C)Nc1cc(-c2c[nH]c(C(=O)N[C@H](CO)c3cccc(Cl)c3)c2)c(Cl)cn1` [BVD-523, N-[(1S)-1-(3-chlorophenyl)-2-hydroxyethyl]-4-[5-chloro-2-(propan-2-ylamino)-pyridin-4-yl]-1H-pyrrole-2-carboxamide], the “Combinatorial effect (Loewe method) … MeWo” value in the test with MeWo is given as “ADD”. Besides, the “Combinatorial effect (Loewe method) … WM-266-4” value in the test on WM-266-4 is on record as “ADD”.

Broadly, the IC50 is the concentration that inhibits the measured activity by half. For `CNC1=Nc2cc(C#CCN3CCCCC3)c(OC)cc2C12CCC2` [Compound A75], the IC50 with CCRF-CEM was 1000 to 5000 nM; in the test with Jurkat, 1000 to 5000 nM; with MOLT-16 it was 100 to 1000 nM; in the test on MOLT-4 it was 100 to 1000 nM; with PEER it was below 100 nM; in the test on SUP-T1, 5000 to 15000 nM. Besides, in the test on TALL-1, the IC50 fell in the range of 5000 to 15000 nM.

Take `CO[C@H]1C[C@@H]2CC[C@@H](C)[C@@](O)(O2)C(=O)C(=O)N2CCCC[C@H]2C(=O)O[C@H]([C@H](C)C[C@@H]2CC[C@@H](OCCO)[C@H](OC)C2)CC(=O)[C@H](C)/C=C(\C)[C@@H](O)[C@@H](OC)C(=O)[C@H](C)C[C@H](C)/C=C/C=C/C=C/1C` [Everolimus, everolimus]: the “Combination effect of Compound 205 and Everolimus (figure legend)” value with MeWo (MeWo melanoma cell line, FIG. 6) is “synergy”; with WM-266-4 (WM-266-4 melanoma cell line, FIG. 6), “synergy”. Moreover, in the test with MeWo, the “Combinatorial effect (Loewe method) … MeWo” value is “SYN”. The “Combinatorial effect (Loewe method) … WM-266-4” value in the test on WM-266-4 is reported as “SYN”.

With `CC(C)NC[C@@H](C(=O)N1CCN(c2ncnc3c2[C@H](C)C[C@H]3O)CC1)c1ccc(Cl)cc1` [GDC-0068, (2S)-2-(4-chlorophenyl)-1-[4-[(5R,7R)-7-hydroxy-5-methyl-6,7-dihydro-5H-cyclopenta[d]pyrimidin-4-yl]piperazin-1-yl]-3-(propan-2-ylamino)propan-1-one], the “Combinatorial effect (Loewe method) … MeWo” value with MeWo is “ADD”. In addition, the “Combinatorial effect (Loewe method) … WM-266-4” value in the test with WM-266-4 is on record as “SYN”.

Take `NC1(c2ccc(-c3nc4ccn5c(=O)[nH]nc5c4cc3-c3ccccc3)cc2)CCC1` [MK-2206]: the “Combinatorial effect (Loewe method) … MeWo” value in the test with MeWo is on record as “SYN”. The “Combinatorial effect (Loewe method) … WM-266-4” value in the test with WM-266-4 is given as “SYN”.

Consider `CC(=O)c1c(C)c2cnc(Nc3ccc(N4CCNCC4)cn3)nc2n(C2CCCC2)c1=O` [Palbociclib, palbociclib], for which the “Combinatorial effect (Loewe method) … MeWo” value in the test on MeWo is reported as “SYN”. The “Combinatorial effect (Loewe method) … WM-266-4” value in the test on WM-266-4 was “SYN”.

In the case of `CS(=O)(=O)N1CCN(Cc2cc3nc(-c4cccc5[nH]ncc45)nc(N4CCOCC4)c3s2)CC1` [Pictilisib, 4-[2-(1H-indazol-4-yl)-6-[(4-methylsulfonylpiperazin-1-yl)methyl]thieno[3,2-d]pyrimidin-4-yl]morpholine], the “Combinatorial effect (Loewe method) … MeWo” value in the test on MeWo was “SYN”. In addition, in the test with WM-266-4, the “Combinatorial effect (Loewe method) … WM-266-4” value was “SYN”.

Take `Cn1cnc2c(F)c(Nc3ccc(Br)cc3Cl)c(C(=O)NOCCO)cc21` [Selumetinib, selumetinib]: in the test with MeWo, the “Combinatorial effect (Loewe method) … MeWo” value is “ADD”. Moreover, the “Combinatorial effect (Loewe method) … WM-266-4” value in the test with WM-266-4 was “ADD”.

Consider `CNC(=O)c1cc(Oc2ccc(NC(=O)Nc3ccc(Cl)c(C(F)(F)F)c3)cc2)ccn1` [Sorafenib], for which the “Combinatorial effect (Loewe method) … MeWo” value in the test with MeWo is “ADD”. Also, the “Combinatorial effect (Loewe method) … WM-266-4” value with WM-266-4 is “SYN”.

With `CC(=O)Nc1cccc(-n2c(=O)n(C3CC3)c(=O)c3c(Nc4ccc(I)cc4F)n(C)c(=O)c(C)c32)c1` [Trametinib], the “Combinatorial effect (Loewe method) … MeWo” value with MeWo is on record as “ADD”. Also, in the test with WM-266-4, the “Combinatorial effect (Loewe method) … WM-266-4” value is “ADD”.
